“And” between values parts separate entries of the source, which are not always exact repeats. Equal values may be shown once.

Common to all, as to experiment: normalised viability (% of control), CellTiter-Blue; higher = more viable cells (about 100 = DMSO control)
Details in all cases: incubation time: 72 h

In assay [1] the test system is CAL-148. The protocol: (§1)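 DSRT, CellTiter-Blue viability, 72 h incubation. Signal is normalised to DMSO and benzethonium chloride controls. Value is the normalised response at dose 6.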
For assay [2], the system named is CAL-51. The protocol: as §1
Assay [3] has as its system CAL-85-1. The protocol: as §1
In assay [4] the test system is DU-4475. As for the experimental part: as §1
Assay [5] has as its system HDQ-P1. The protocol:
as §1

Assay [6] relates to MDA-MB-453. As for the experimental part: as §1

With `COc1cc(Nc2c(C#N)cnc3cc(OCCCN4CCN(C)CC4)c(OC)cc23)c(Cl)cc1Cl` [Bosutinib] (300 nM), the normalised viability was 82.2% in assay [1]; 117% in assay [2]; 108% in assay [3]; 99.7% in assay [4]; 68.5% in assay [5]; 88.2% in assay [6].

For `Cc1cn(-c2cc(NC(=O)c3ccc(C)c(Nc4nccc(-c5cccnc5)n4)c3)cc(C(F)(F)F)c2)cn1` [Nilotinib] (300 nM), the normalised viability was 94.6% and 101% in assay [1]; 109% and 112% in assay [2]; 92.1% and 86% in assay [3]; 90.1% and 113% in assay [4]; 47.2% and 70.8% in assay [5]; 94.5% and 91.4% in assay [6].

For the compound `CC(C)C[C@H](NC(=O)[C@@H](COC(C)(C)C)NC(=O)[C@H](Cc1ccc(O)cc1)NC(=O)[C@H](CO)NC(=O)[C@H](Cc1c[nH]c2ccccc12)NC(=O)[C@H](Cc1cnc[nH]1)NC(=O)[C@@H]1CCC(=O)N1)C(=O)N[C@@H](CCCNC(=N)N)C(=O)N1CCC[C@H]1C(=O)NNC(N)=O` [Goserelin] (300 nM), the normalised viability in assay [1] amounted to 104%; in assay [2] it was 108%; in assay [3], 99.7%; in assay [4], 106%; in assay [5], 91.4%; in assay [6] it was 106%.

With `COc1c2occc2cc2ccc(=O)oc12` [Methoxsalen] (300 nM), the normalised viability in assay [1] was 114%; in assay [2], 104%; in assay [3], 107%; in assay [4] it was 111%; in assay [5] it was 88.7%; in assay [6], 99.9%.

Turning to `CNC(=O)c1ccccc1Sc1ccc2c(/C=C/c3ccccn3)n[nH]c2c1` [Axitinib] (300 nM), the normalised viability in assay [1] was found to be 94%; in assay [2], 96.1%; in assay [3], 83.6%; in assay [4], 103%; in assay [5], 40.1%; in assay [6], 96.8%.

Take `CCN(CC)CCCC(C)Nc1ccnc2cc(Cl)ccc12` (stereo unspecified) [Chloroquine] (29.7 nM): the normalised viability in assay [1] is 89.9%; in assay [2], 88.5%; in assay [3] it was 92.7%; in assay [4] it was 116%; in assay [5] it was 123%; in assay [6], 98.8%.

Consider `CC(=O)[C@]1(O)Cc2c(O)c3c(c(O)c2[C@@H](O[C@H]2C[C@H](N)[C@H](O)[C@H](C)O2)C1)C(=O)c1ccccc1C3=O` [Idarubicin] (30 nM), for which the normalised viability in assay [1] turned out to be 40.7%; in assay [2], 31.1%; in assay [3], 89.9%; in assay [4] it was 50%; in assay [5], 83.6%; in assay [6] it was 101%.

`Cn1cc(C2=C(c3cn(C4CCN(Cc5ccccn5)CC4)c4ccccc34)C(=O)NC2=O)c2ccccc21` [Enzastaurin] (300 nM): the normalised viability was determined as 79.2% in assay [1]; 92.3% in assay [2]; 90.2% in assay [3]; 77.5% in assay [4]; 45.9% in assay [5]; 80.6% in assay [6].

As to `C/C(=C\c1csc(C)n1)[C@@H]1C[C@@H]2O[C@]2(C)CCC[C@H](C)[C@H](O)[C@@H](C)C(=O)C(C)(C)[C@@H](O)CC(=O)N1` [Ixabepilone] (30 nM), the normalised viability in assay [1] was 99.2%; in assay [2], 103%; in assay [3], 85%; in assay [4], 88.9%; in assay [5] it was 71.6%; in assay [6] it was 102%.

For the compound `CCNC(=O)CCC/C=C\C[C@@H]1[C@@H](/C=C/[C@@H](O)CCc2ccccc2)[C@H](O)C[C@@H]1O` [Bimatoprost] (165 nM), the normalised viability in assay [1] came to 94.6%; in assay [2], 116%; in assay [3], 96.4%; in assay [4], 97.6%; in assay [5], 81.4%; in assay [6] it was 102%.

Regarding `CC1(C)CCC(c2ccc(Cl)cc2)=C(CN2CCN(c3ccc(C(=O)NS(=O)(=O)c4ccc(N[C@H](CCN5CCOCC5)CSc5ccccc5)c(S(=O)(=O)C(F)(F)F)c4)cc3)CC2)C1` [Navitoclax] (300 nM), the normalised viability in assay [1] worked out at 90.4%; in assay [2], 99.9%; in assay [3], 75.2%; in assay [4], 47.2%; in assay [5] it was 50.2%; in assay [6] it was 78.1%.

Regarding `CC(O)(CS(=O)(=O)c1ccc(F)cc1)C(=O)Nc1ccc(C#N)c(C(F)(F)F)c1` (stereo unspecified) [Bicalutamide] (300 nM), the normalised viability in assay [1] worked out at 107%; in assay [2], 108%; in assay [3], 95%; in assay [4], 93.6%; in assay [5], 55%; in assay [6], 110%.

For the compound `C=CCN(/C=C1/C(=O)O[C@H](COC)[C@@]2(C)C1=C(O)C(=O)C1=C2[C@H](OC(C)=O)C[C@]2(C)C(=O)CC[C@@H]12)CC=C` [PX-866] (300 nM), the normalised viability was found to be 116% in assay [1]; 110% in assay [2]; 103% in assay [3]; 93% in assay [4]; 75.8% in assay [5]; 112% in assay [6].

As for `COc1ccc(S(=O)(=O)Nc2cccnc2Nc2ccc(O)cc2)cc1` [ABT-751] (300 nM), the normalised viability in assay [1] came out at 98.6%; in assay [2], 94.3%; in assay [3] it was 58.7%; in assay [4], 80.7%; in assay [5] it was 55.8%; in assay [6], 39.5%.

For the compound `CO[C@@]12[C@H](COC(N)=O)C3=C(C(=O)C(C)=C(N)C3=O)N1C[C@@H]1N[C@@H]12` [Mitomycin C] (300 nM), the normalised viability in assay [1] worked out at 105%; in assay [2], 102%; in assay [3], 98.7%; in assay [4], 86%; in assay [5], 83.7%; in assay [6] it was 110%.

Regarding `CC(C)(C)NC(=O)[C@H]1CC[C@H]2[C@@H]3CC[C@H]4NC(=O)C=C[C@]4(C)[C@H]3CC[C@]12C` [Finasteride] (300 nM), the normalised viability amounted to 106% in assay [1]; 105% in assay [2]; 97.8% in assay [3]; 96.4% in assay [4]; 109% in assay [5]; 112% in assay [6].

The values above are taken from the supplement of paper PMC4862054.
